US8524782B2, “Key intermediate for the preparation of Stilbenes, solid forms of Pterostilbene, and methods for making the same” (Laurus Labs Private Limited, priority 2008, dated 2013)
Values joined by “and” are separate entries in the source; they are usually repeats but may differ in a detail not shown here. Equal entries are not always repeated.

Experiments:
[1] = Slurry interconversion experiments in toluene (XRPD of recovered solids); type: physicochemical; conditions: from enthalpy of fusion, melting point and slurry interconversion in toluene
Description: Thermodynamic stability relationships of known forms of Pterostilbene were studied by calculating the enthalpy of fusion for each form (from DSC data, Table 4) and through slurry interconversion experiments in toluene in Table 1.
Saturated solutions of Pterostilbene were prepared at ambient temperature in toluene. The solutions were filtered and seeds of each form were added. The samples were agitated for days and the solids recovered by vacuum filtration. The solids were collected and allowed to dry under ambient conditions.

[2] = Enthalpy (heat) of fusion from DSC data; type: physicochemical; conditions: for Heat of fusion (ΔH), single analyses / Heat of fusion (ΔH), average: DSC 50° C./min; for Heat of fusion (ΔH), average: average of three
Description: In Table 4, for Form I, the 26.4 kJ/mol value for the enthalpy of fusion was calculated from a single 10° C./min pattern whereas the 25.6 kJ/mol value was calculated as an average from three 50° C./min patterns. DSC results for Form III indicated a melt onset at 76° C., while HSM results indicated it was 81° C. Material decomposition was observed upon heating above approximately 170° C. The minor weight loss observed up to 150° C. was attributed to loss of residual solvent. FIG. 1 is a DSC stack plot for Forms I-V of Pterostilbene. Differential Scanning Calorimetry (DSC) analyses were performed using a TA Instruments (New Castle, Del.) Q2000 differential scanning calorimeter, equipped with a refrigerated cooling system (RCS). Temperature calibration was performed using NIST traceable indium metal. The sample was placed into an aluminum DSC pan, and the weight was accurately recorded. The pan was covered with a lid perforated with a laser pinhole, and the lid was hermetically sealed. A weighed, crimped aluminum pan was placed on the reference side of the cell. The sample cell was equilibrated at sub-ambient temperature and heated under a nitrogen purge at a rate of 10° C./minute. Higher and lower heating rates were also investigated (from 1 to 300° C./min). Alternatively, data were obtained using a modulation amplitude of +/−0.8° C. and a 60 second period with an underlying heating rate of 2° C./min from −50 to 150° C. The reported glass transition temperatures are obtained from the inflection of the step change in the reversible heat flow versus temperature curve. Thermodynamic stability relationships of various forms of Pterostilbene were studied by calculating the heat of fusion for each form (from DSC data, see table 4) and through slurry interconversion experiments in toluene. Heat of fusion (ΔH) for Form I was determined (from […] DSC data) to be approximately 100 J/g or 25.6 kJ/mol. […] Heat of fusion for Form II was determined (from 10° C./min DSC data) to be approximately 92 J/g or 23.6 kJ/mol. […] Heat of fusion for Form III was estimated (from 50° C./min DSC data) to be approximately 75 J/g or 19.2 kJ/mol.

[3] = Thermogravimetric (TG) analysis; type: physicochemical; conditions: TGA, up to 150° C., attributed to residual solvent
Description: In Table 4, for Form I, the 26.4 kJ/mol value for the enthalpy of fusion was calculated from a single 10° C./min pattern whereas the 25.6 kJ/mol value was calculated as an average from three 50° C./min patterns. DSC results for Form III indicated a melt onset at 76° C., while HSM results indicated it was 81° C. Material decomposition was observed upon heating above approximately 170° C. The minor weight loss observed up to 150° C. was attributed to loss of residual solvent. FIG. 1 is a DSC stack plot for Forms I-V of Pterostilbene.
Thermogravimetric (TG) analyses were performed using a TA Instruments Q5000 IR thermogravimetric analyzer. Temperature calibration was performed using nickel and Alumel. Each sample was placed in an aluminum pan. The pan was hermetically sealed with a lid that was opened using a punching mechanism just before being inserted into the TG furnace. The furnace was heated under nitrogen at a rate of 10° C./minute.

[4] = Water vapor adsorption/desorption (WVS); type: physicochemical; conditions: for Sorption (5-95-5% RH): adsorption 5 to 95% RH; for Desorption (5-95-5% RH): desorption 95 to 5% RH
Description: Water vapor adsorption/desorption (WVS) data were collected on a VTI SGA-100 Vapor Sorption Analyzer. NaCl and PVP were used as calibration standards. Samples were not dried prior to analysis. Adsorption and desorption data were collected over a range from 5 to 95% RH at 10% RH increments under a nitrogen purge. The equilibrium criterion used for analysis was less than 0.0100% weight change in 5 minutes with a maximum equilibration time of 3 hours if the weight criterion was not met. Data were not corrected for the initial moisture content of the samples.

[5] = Intrinsic dissolution rate in water; type: physicochemical
Description: The polymorphs of Pterostilbene described herein can also be characterized by their respective dissolution rates. […] (open symbols) and 37° C. (filled symbols). […] UV-VIS spectrophotometry: samples were analyzed using a SpectraMax M2 Microplate Reader. Wavelength calibration and photometric accuracy was performed using the SpectraMax […] software as an internal calibration of the instrument. The instrument was blanked with an empty quartz glass plate. Samples were analyzed in the UV range at ambient temperature in the wells of a 96-well quartz plate. The absorbance spectra of water was collected and subtracted from the spectra of the drug solutions to calculate concentrations. Samples were performed in duplicate and absorbance data was averaged. The standard curve was determined based on absorbance at 310 nm.

[6] = Stress conditions, stability of Pterostilbene Form II; type: physicochemical
Excerpt: Stress conditions were employed to evaluate the stability of Pterostilbene Form II. […] Ambient and elevated temperature water slurry experiments starting with Form II material were set up in an effort to produce a hydrate of Pterostilbene.

[7] = Physical stability of amorphous Pterostilbene under ambient conditions; type: physicochemical
Excerpt: FIG. 9 is the x-ray diffraction pattern of x-ray amorphous Pterostilbene. By use the term “x-ray amorphous” what is meant is a material whose powder x-ray powder diffraction pattern is consistent with an amorphous “halo” as that term is understood in the art. By inspection, one of ordinary skill in the art would recognize that the pattern in FIG. 9 does represents a material without any significant crystallinity. However, the material may be nanocrystalline or some other disordered solid. The glass transition temperature of amorphous Pterostilbene was experimentally determined (by modulated DSC) to be approximately 4° C.

[8] = cited from earlier work
[9] = cited from earlier work; remark: listed apart in the source
[10] = DSC 50° C./min (average of three for Forms I and II)

COc1cc(/C=C/c2ccc(O)cc2)cc(OC)c1 [Form II]
Thermodynamic stability relationship of forms [1]: thermodynamically favored compared to Forms III-V
Enthalpy of fusion ([2]; DSC 10° C./min): ~5.64 kcal/mol
Heat of fusion (ΔH) ([2]; DSC 10° C./min): approximately 92 J/g
Enthalpy of fusion ([2]; DSC 10° C./min, listed as II): 5.64 kcal/mol
Heat of fusion (ΔH), single analyses [2]: 100 J/g and 91 J/g and 92 J/g
Enthalpy of fusion [2, 10]: 5.78 kcal/mol
Enthalpy of fusion ([2]; DSC 50° C./min (average of three for Forms I and II), listed as II): 5.78 kcal/mol
Heat of fusion (ΔH), average [2]: 94 J/g
% weight loss (at 150° C.) [3]: 0.2%
Sorption (5-95-5% RH) [4]: 0.2/0.2 weight %
Desorption (5-95-5% RH) [4]: 0.2/0.2 weight %
Intrinsic dissolution rate ([5]; 25° C.): 0.90 ± 0.03 μg/cm^−2/min
Intrinsic dissolution rate ([5]; 37° C.): 2.35 ± 0.08 μg/cm^−2/min
Organic vapor stress [6]: structurally unchanged
Heat stress ([6]; 80° C. for 3 days): conversion to Form I
Chemical stability on ambient exposure ([6]; ambient (air, but not light) exposure, 34 days): chemically unchanged
Structural stability on ambient exposure ([6]; ambient (air, but not light) exposure, 70 days): structurally unchanged
Hydrate formation in water slurry ([6]; ambient and elevated temperature water slurry): No hydrate was observed
Moderate humidity stress ([6]; ambient and elevated temperatures): did not result in deliquescence
Resulting material of water slurry ([6]; ambient temperature): Form II
Resulting material of water slurry ([6]; elevated temperature): Form I

COc1cc(/C=C/c2ccc(O)cc2)cc(OC)c1 [amorphous Pterostilbene]
Physical stability of the amorphous form [7]: rapidly crystallized

COc1cc(/C=C/c2ccc(O)cc2)cc(OC)c1 [Form V]
% weight loss (at 150° C.) ([3]; listed as V): 0.4%
Sorption (5-95-5% RH) ([4]; listed as V): 0.8 weight %
Desorption (5-95-5% RH) ([4]; listed as V): 0.5 weight %

COc1cc(/C=C/c2ccc(O)cc2)cc(OC)c1 [Pterostilbene, trans-3,5-dimethoxy-4′-hydroxystilbene]
Solubility in water [8]: poor
Bioavailability [9]: poor

COc1cc(/C=C/c2ccc(O)cc2)cc(OC)c1 [Form IV]
% weight loss (at 150° C.) ([3]; listed as IV): 0.2%
Sorption (5-95-5% RH) ([4]; listed as IV): 0.5/0.5 weight %
Desorption (5-95-5% RH) ([4]; listed as IV): 0.5/0.5 weight %

COc1cc(/C=C/c2ccc(O)cc2)cc(OC)c1 [Form I]
Thermodynamic stability relationship of forms [1]: thermodynamically stable crystal form
Enthalpy of fusion ([2]; DSC 10° C./min): ~6.12 kcal/mol and 6.31 kcal/mol
Heat of fusion (ΔH) ([2]; DSC 10° C./min): approximately 100 J/g
Enthalpy of fusion ([2]; DSC 10° C./min, listed as I): 6.12 kcal/mol
Heat of fusion (ΔH), single analyses [2]: 106 J/g and 102 J/g and 101 J/g
Enthalpy of fusion [2, 10]: 6.31 kcal/mol and 6.12 kcal/mol
Enthalpy of fusion ([2]; DSC 50° C./min (average of three for Forms I and II), listed as I): 6.31 kcal/mol
Heat of fusion (ΔH), average [2]: 103 J/g
% weight loss (at 150° C.) [3]: 0.5%
Sorption (5-95-5% RH) [4]: 0.2/0.2 weight %
Desorption (5-95-5% RH) [4]: 0.2/0.2 weight %
Intrinsic dissolution rate ([5]; 25° C.): 0.83 ± 0.06 μg/cm^−2/min
Intrinsic dissolution rate ([5]; 37° C.): 2.05 ± 0.03 μg/cm^−2/min

COc1cc(/C=C/c2ccc(O)cc2)cc(OC)c1 [Form III]
Heat of fusion (ΔH), single analyses [2]: approximately 75 J/g
Enthalpy of fusion [2, 10]: ~4.59 kcal/mol
Enthalpy of fusion ([2]; DSC 50° C./min (average of three for Forms I and II), listed as III): 4.59 kcal/mol
% weight loss (at 150° C.) [3]: 0.2%
Sorption (5-95-5% RH) [4]: 0.6 weight %
Desorption (5-95-5% RH) [4]: 0.5 weight %
